The target of one assay is T1, human AT1 receptor (Homo sapiens, UniProt P30556).
T1 construct: expressed in transfected cells; host or cells: CHO-K1
T1 sequence (P30556 1-359): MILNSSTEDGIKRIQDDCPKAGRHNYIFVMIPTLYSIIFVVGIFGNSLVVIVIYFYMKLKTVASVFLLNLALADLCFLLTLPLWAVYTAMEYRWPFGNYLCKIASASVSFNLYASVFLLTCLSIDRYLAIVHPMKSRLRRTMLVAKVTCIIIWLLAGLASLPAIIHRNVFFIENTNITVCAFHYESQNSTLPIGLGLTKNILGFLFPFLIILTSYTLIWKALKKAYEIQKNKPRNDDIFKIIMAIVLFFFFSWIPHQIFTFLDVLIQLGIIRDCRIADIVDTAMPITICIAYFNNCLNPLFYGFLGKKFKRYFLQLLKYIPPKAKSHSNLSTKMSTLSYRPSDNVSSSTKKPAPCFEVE
The assay is described as follows: AT1 radioligand binding assay (displacement of [Eu]AngII). As to conditions: membranes of CHO-K1 cells expressing cloned human AT1 receptor; values given as lower bounds; read-out: AT1 pKi (converted). In outline:
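Membranes from CHO-K1 cells stably expressing cloned human AT1, 0.2 μg protein, in 50 mM Tris/HCl pH 7.5, 5 mM MgCl2, 0.025% BSA. Compounds displaced [Eu]AngII over 120 min in the dark at room temperature or 37° C; filter-bound TRF read. Nonspecific binding with 10 μM angiotensin II; IC50 converted to Ki via Cheng-Prusoff, reported as pKi.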

The target of another assay is T2, NEP enzyme (Homo sapiens, UniProt P08473).
T2 construct: purchased R&D Systems, Minneapolis, Minn; 1182-ZN
The assay is described as follows: NEP enzyme inhibition assay (fluorogenic peptide substrate). The conditions noted are these: values given as lower bounds; * = prodrugs, may not exhibit NEP activity in an in vitro assay; read-out: NEP pIC50 (converted). Format: biochemical. In outline: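 Recombinant human NEP was run with Mca-BK2 (10 μM) at room temperature in Tris buffer with 1 μM Zn. Compounds (10 μM–20 pM, 12 points) were pre-equilibrated 10 min, then reacted 20 min and acid-stopped. Fluorescence ex 320/em 405 nm, one-site competition fit gives pIC50. Thiol compounds may be pre-treated with 400 μM TCEP.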

Molecules are shown by their SMILES.

T2 sequence (P08473 52-750 limits assumed): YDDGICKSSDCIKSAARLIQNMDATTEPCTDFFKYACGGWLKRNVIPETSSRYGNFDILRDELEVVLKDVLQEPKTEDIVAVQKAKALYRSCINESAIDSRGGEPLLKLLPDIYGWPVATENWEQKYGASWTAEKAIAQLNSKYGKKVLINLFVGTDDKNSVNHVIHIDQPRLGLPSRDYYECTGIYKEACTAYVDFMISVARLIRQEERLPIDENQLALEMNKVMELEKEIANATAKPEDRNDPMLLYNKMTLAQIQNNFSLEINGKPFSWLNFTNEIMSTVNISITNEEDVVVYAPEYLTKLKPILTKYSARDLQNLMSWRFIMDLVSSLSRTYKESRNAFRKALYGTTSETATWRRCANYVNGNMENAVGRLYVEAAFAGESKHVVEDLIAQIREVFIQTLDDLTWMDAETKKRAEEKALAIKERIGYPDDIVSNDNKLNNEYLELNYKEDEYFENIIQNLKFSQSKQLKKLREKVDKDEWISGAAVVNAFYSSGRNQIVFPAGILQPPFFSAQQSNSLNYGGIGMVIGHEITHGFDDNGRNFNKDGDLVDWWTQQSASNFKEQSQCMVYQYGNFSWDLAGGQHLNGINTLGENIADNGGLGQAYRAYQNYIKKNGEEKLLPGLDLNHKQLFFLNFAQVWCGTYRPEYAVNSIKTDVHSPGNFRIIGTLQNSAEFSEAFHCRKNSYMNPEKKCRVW

Take `CCCc1cc(C(=O)N[C@H](Cc2ccccc2)CN(O)C=O)nn1Cc1ccc(-c2ccccc2-c2nnn[nH]2)cc1` [Example 3-14, 5-Propyl-1-[2′-(1H-tetrazol-5-yl)-biphenyl-4-ylmethyl]-1H-pyrazole-3-carboxylic acid [(R)-1-benzyl-2-(formylhydroxyamino)ethyl]amide]: the Ki at human AT1 receptor was at most 10 nM. In addition, the IC50 on NEP enzyme was at most 100 nM.

Regarding `CCCc1cc(C(=O)N[C@H](Cc2ccccc2)[C@@H](O)C(=O)O)nn1Cc1ccc(-c2ccccc2S(=O)(=O)NC(=O)C(C)(C)N)cc1` [Example 7-19, (2R,3R)-3-({1-[2′-(2-Amino-2-methylpropionylsulfamoyl)biphenyl-4-ylmethyl]-5-propyl-1H-pyrazole-3-carbonyl}amino)-2-hydroxy-4-phenylbutyric acid], the Ki at human AT1 receptor is at most 100 nM. Also, the IC50 at NEP enzyme is at most 1000 nM.

With `CCCc1cc(C(=O)N[C@@H](CC(=O)O)Cc2ccccc2)nn1Cc1ccc(-c2ccccc2S(=O)(=O)NC(C)=O)nc1` [Example 14-15, (R)-3-({1-[6-(2-Acetylsulfamoylphenyl)-pyridin-3-ylmethyl]-5-propyl-1H-pyrazole-3-carbonyl}-amino)-4-phenylbutyric acid], the Ki on human AT1 receptor is at most 10 nM. For the same molecule, on NEP enzyme, the IC50 is at most 1000 nM.

For `CCCc1cc(C(=O)N[C@H](Cc2ccccc2)[C@@H](O)C(=O)O)nn1Cc1ccc(-c2ccccc2-c2nc(=O)o[nH]2)cc1` [Example 16-2, (2R,3R)-2-Hydroxy-3-({1-[2′-(5-oxo-2,5-dihydro-[1,2,4]oxadiazol-3-yl)biphenyl-4-ylmethyl]-5-propyl-1H-pyrazole-3-carbonyl}amino)-4-phenylbutyric acid], the Ki at human AT1 receptor is at most 10 nM. Besides, at NEP enzyme, the IC50 is at most 1000 nM.

As for `CCCc1cc(C(=O)N[C@@H](CS)Cc2ccccc2)nn1Cc1ccc(-c2ccccc2-c2nnn[nH]2)cc1F` [Example 3-2, 1-[3-Fluoro-2′-(1H-tetrazol-5-yl)biphenyl-4-ylmethyl]-5-propyl-1H-pyrazole-3-carboxylic acid ((R)-1-benzyl-2-mercaptoethyl)amide], the Ki on human AT1 receptor was at most 10 nM. Moreover, the IC50 at NEP enzyme was at most 100 nM.

Turning to `CCCc1cc(C(=O)N[C@H](Cc2ccccc2)[C@@H](O)C(=O)O)nn1Cc1ccc(-c2ccccc2S(=O)(=O)NC(=O)COC)cc1` [Example 7-8, (2R,3R)-2-Hydroxy-3-({1-[2′-(2-methoxyacetylsulfamoyl)biphenyl-4-ylmethyl]-5-propyl-1H-pyrazole-3-carbonyl}amino)-4-phenylbutyric acid], at human AT1 receptor, the Ki is at most 10 nM. Further, the IC50 on NEP enzyme was at most 1000 nM.

For `CCCc1cc(C(=O)N[C@@H](CS)Cc2ccccc2)nn1Cc1ccc(-c2ccccc2-c2nc(=O)o[nH]2)cc1` [Example 16-1, 1-[2′-(5-Oxo-2,5-dihydro-[1,2,4]oxadiazol-3-yl)biphenyl-4-ylmethyl]-5-propyl-1H-pyrazole-3-carboxylic acid ((R)-1-benzyl-2-mercaptoethyl)amide], at human AT1 receptor, the Ki is at most 10 nM. Also, the IC50 on NEP enzyme is at most 100 nM.

Regarding `CCCc1cc(C(=O)N[C@H](Cc2ccccc2)[C@@H](O)C(=O)O)nn1Cc1c(F)cc(-c2ccccc2-c2nnn[nH]2)cc1F` [Example 3-26, (2R,3R)-3-(1-((3,5-difluoro-2′-(1H-tetrazol-5-yl)biphenyl-4-yl)methyl)-5-propyl-1H-pyrazole-3-carboxamido)-2-hydroxy-4-phenylbutanoic acid], the Ki at human AT1 receptor is at most 100 nM. Besides, the IC50 on NEP enzyme was at most 100 nM.

With `CCc1cc(C(=O)N[C@H](Cc2ccccc2)[C@@H](O)C(=O)O)nn1Cc1ccc(-c2ccccc2S(=O)(=O)NC(C)=O)cc1F` [Example 6-10, (2R,3R)-3-{[1-(2′-Acetylsulfamoyl-3-fluoro-biphenyl-4-ylmethyl)-5-ethyl-1H-pyrazole-3-carbonyl]amino}-2-hydroxy-4-phenylbutyric acid], the Ki at human AT1 receptor was at most 100 nM. Further, the IC50 at NEP enzyme was at most 100 nM.

With `CCCc1cc(C(=O)N[C@@H](CS)Cc2ccccc2)nn1Cc1ccc(-c2ccccc2C(=O)O)cc1F` [Example 8, 4′-[3-((R)-1-Benzyl-2-mercaptoethylcarbamoyl)-5-propylpyrazol-1-ylmethyl]-3′-fluorobiphenyl-2-carboxylic acid], at human AT1 receptor, the Ki is at most 100 nM. The IC50 on NEP enzyme was at most 100 nM.

For `CCCc1cc(C(=O)N[C@H](Cc2ccccc2Cl)[C@@H](O)C(=O)O)nn1Cc1ccc(-c2ccccc2-c2nnn[nH]2)cc1` [Example 3-22, (2R,3R)-3-(1-((2′-(1H-tetrazol-5-yl)biphenyl-4-yl)methyl)-5-propyl-1H-pyrazole-3-carboxamido)-4-(2-chlorophenyl)-2-hydroxybutanoic acid], the Ki on human AT1 receptor was at most 100 nM. Besides, the IC50 at NEP enzyme is at most 100 nM.

For the molecule `CCCc1cc(C(=O)N[C@H](Cc2ccccc2)[C@@H](O)C(=O)O)nn1Cc1ccc(-c2ccccc2S(=O)(=O)NC(=O)OCC)cc1` [Example 7-7, (2R,3R)-3-(1-((2′-(N-(ethoxycarbonyl)sulfamoyl)biphenyl-4-yl)methyl)-5-propyl-1H-pyrazole-3-carboxamido)-2-hydroxy-4-phenylbutanoic acid], the Ki at human AT1 receptor is at most 10 nM. The IC50 on NEP enzyme was at most 1000 nM.

On to `CCCc1cc(C(=O)N[C@H](Cc2ccccc2)[C@@H](O)C(=O)OC)nn1Cc1ccc(-c2ccccc2-c2nnn[nH]2)cc1` [Example 3-12, (2R,3R)-2-Hydroxy-4-phenyl-3-({5-propyl-1-[2′-(1H-tetrazol-5-yl)-biphenyl-4-ylmethyl]-1H-pyrazole-3-carbonyl}amino)butyric acid methyl ester], for which the Ki at human AT1 receptor is at most 10 nM. The IC50 at NEP enzyme was at most 10000 nM.

On to `CCCc1cc(C(=O)N[C@H](Cc2ccccc2)[C@@H](O)C(=O)O)nn1Cc1ccc(-c2ccccc2S(=O)(=O)NC(=O)NCC)cc1` [Example 7-1, (2R,3R)-3-(1-((2′(N-(ethylcarbamoyl)sulfamoyl)biphenyl-4-yl)methyl)-5-propyl-1H-pyrazole-3-carboxamido)-2-hydroxy-4-phenylbutanoic acid], for which, on human AT1 receptor, the Ki is at most 10 nM. The IC50 on NEP enzyme is at most 1000 nM.

Consider `CCOc1cc(C(=O)N[C@@H](CS)Cc2ccccc2)nn1Cc1ccc(-c2ccccc2S(=O)(=O)NC(C)=O)cc1` [Example 6-2, 1-(2′-Acetylsulfamoyl-biphenyl-4-ylmethyl)-5-ethoxy-1H-pyrazole-3-carboxylic acid ((R)-1-benzyl-2-mercaptoethyl)amide], for which the Ki at human AT1 receptor was at most 10 nM. Further, the IC50 at NEP enzyme was at most 100 nM.

Turning to `CCCc1cc(C(=O)N[C@@H](CC(=O)O)CC(C)C)nn1Cc1ccc(-c2ccccc2-c2nnn[nH]2)nc1` [Example 14-7, (R)-5-Methyl-3-[(5-propyl-1-{6-[2-(1H-tetrazol-5-yl)-phenyl]-pyridin-3-ylmethyl}-1H-pyrazole-3-carbonyl)-amino]hexanoic acid], the Ki on human AT1 receptor is at most 10 nM. Besides, the IC50 on NEP enzyme is at most 100 nM.

With `CCCc1cc(C(=O)N[C@H](Cc2ccccc2)[C@@H](O)C(=O)O)nn1Cc1cnc(-c2ccccc2S(=O)(=O)NC(C)=O)cn1` [Example 17-5, (2R,3R)-3-({1-[5-(2-Acetylsulfamoylphenyl)pyrazin-2-ylmethyl]-5-propyl-1H-pyrazole-3-carbonyl}amino)-2-hydroxy-4-phenylbutyric acid], the Ki on human AT1 receptor is at most 100 nM. Also, the IC50 on NEP enzyme is at most 100 nM.

`CCCc1cc(C(=O)N[C@@H](CC(=O)O)Cc2ccccc2Cl)nn1Cc1ccc(-c2ccccc2S(=O)(=O)NC(=O)COC)cc1` [Example 7-18, (R)-4-(2-Chlorophenyl)-3-({1-[2′-(2-methoxyacetylsulfamoyl)biphenyl-4-ylmethyl]-5-propyl-1H-pyrazole-3-carbonyl}amino)butyric acid]: the Ki at human AT1 receptor is at most 10 nM. For the same molecule, the IC50 at NEP enzyme was at most 1000 nM.

In the case of `CCCc1cc(C(=O)N[C@H](Cc2ccccc2)[C@@H](O)C(=O)O)nn1Cc1ccc(-c2ccccc2-c2nnn[nH]2)nc1` [Example 14-1, (2R,3R)-2-Hydroxy-4-phenyl-3-[(5-propyl-1-{6-[2-(1H-tetrazol-5-yl)-phenyl]pyridin-3-ylmethyl}-1H-pyrazole-3-carbonyl)amino]butyric acid], the Ki at human AT1 receptor is at most 10 nM. In addition, the IC50 at NEP enzyme is at most 100 nM.

`CCCc1cc(C(=O)N[C@H](Cc2ccccc2Cl)[C@@H](O)C(=O)O)nn1Cc1ccc(-c2ccccc2S(=O)(=O)NC(C)=O)cc1` [Example 6-9, (2R,3R)-3-{[1-(2′-Acetylsulfamoylbiphenyl-4-ylmethyl)-5-propyl-1H-pyrazole-3-carbonyl]-amino}-4-(2-chlorophenyl)-2-hydroxy-butyric acid]: on human AT1 receptor, the Ki is at most 10 nM. The IC50 at NEP enzyme is at most 100 nM.

In the case of `CCOc1cc(C(=O)N[C@H](Cc2ccccc2)[C@@H](O)C(=O)O)nn1Cc1ccc(-c2ccccc2-c2nnn[nH]2)cc1F` [Example 3-8, (2R,3R)-3-({5-Ethoxy-1-[3-fluoro-2′-(1H-tetrazol-5-yl)biphenyl-4-ylmethyl]-1H-pyrazole-3-carbonyl}amino)-2-hydroxy-4-phenylbutyric acid], on human AT1 receptor, the Ki was at most 100 nM. The IC50 on NEP enzyme was at most 1000 nM.

(Values after patent US8350027B2, “Dual-acting pyrazole antihypertensive agents” (Theravance, Inc., priority 2009, dated 2013).)
